Where “and” joins values, the source holds several entries; their conditions need not be identical. Equal values may be shown once.
Tests used:
Assay type in all cases: in vivo, human
[1] = test system: patients with catecholamine-resistant vasodilatory shock; test: Ventilator liberation, RRT liberation and ICU discharge in ATHOS-3 by baseline renin
Method: (§1) The Angiotensin II for the Treatment of High-Output Shock 3 (ATHOS-3) study has been previously described—NCT02338843. In brief, adults with vasodilatory shock despite volume resuscitation with ≥25 mL/kg and high-dose vasopressors (defined as a norepinephrine equivalent [NED] of greater than 0.2 mcg/kg/min) were randomly assigned 1:1 to receive synthetic human angiotensin II (La Jolla Pharmaceutical Company, San Diego, Calif.) or saline placebo plus standard vasopressors. Randomization was stratified according to MAP at screening and Acute Physiology and Chronic Health Evaluation II (APACHE II) score.
(§2) Study drug infusion started at 20 ng/kg/min and was adjusted during the first 3 hours to increase the MAP to ≥75 mm Hg while keeping other vasopressors constant. Thereafter, the study drug and other vasopressors were adjusted at the discretion of the treating ICU team to maintain a MAP between 65 and 75 mm Hg. At 48 hours, the infusion was discontinued according to a protocol-specified tapering process. However, continuation was allowed for up to 7 days at the discretion of the ICU team.
(§3) Descriptive statistics with 95% confidence intervals (CIs) were used to summarize data according to treatment group. Differences between treatment groups were identified using the Wilcoxon rank-sum test or analysis of variance for continuous or ordinal variables and the chi-square or Fisher's exact test for discrete variables. Time-to-event data was summarized, including survival, using Kaplan-Meier estimates and compared them by log-rank test. Hazard ratios (HRs) are estimated from a proportional hazards model. A two-sided alpha level of 0.05 was used to test for differences in treatment outcomes without adjustments for multiplicity. Correlation coefficients were calculated for renin versus angiotensin I and the angiotensin I/II ratio. Correlation coefficients were also calculated for renin versus angiotensin I for hour 0 (baseline) and hour 3. For multivariate analyses, covariates that were utilized for study stratification (Model A), covariates that were different between groups defined by P<0.10 (Model B), and statistically significant covariates from Models A and B were included in a multivariate logistic regression (Model C). The dichotomized baseline covariates that were utilized for study stratification were MAP <65 mm Hg and APACHE II score >30.

[2] = test system: patients with catecholamine-resistant vasodilatory shock; test: Change in CV and total SOFA score from baseline to hour 48, ATHOS-3
Method: as §1, §2, §3

[3] = test system: patients with catecholamine-resistant vasodilatory shock; test: 28-day mortality / survival in ATHOS-3 by baseline serum renin; conditions: for Hazard Ratio (95% CI), mortality, treatment arm: patients with elevated baseline renin only; for unstratified hazard ratio, 28-day mortality, vs placebo: renin above study population median (high renin), N = 128, 95% CI 0.35-0.88
Method: as §1, §2, §3

[4] = test system: patients with catecholamine-resistant vasodilatory shock; test: Adverse events, ATHOS-3 patients with elevated baseline renin; conditions: patients with elevated renin concentrations at baseline
Method: Safety was evaluated by assessment of treatment-emergent adverse events, serious adverse events, and adverse event-related drug discontinuations. Data were analyzed with the use of SAS software, version 9.4 (SAS Institute, Cary, N.C.) and R version 3.5.3. (R Foundation).

patients with severe AKI = test: Renal recovery in patients with severe AKI by serum renin levels, ATHOS-3; conditions: first 7 days
Method: as §1, §2
as §3, with “For multivariate analyses, covariates that were utilized for study stratification (Model A), covariates that were different between groups defined by P<0.10 (Model B), and statistically significant covariates from Models A and B were included in a multivariate logistic regression (Model C). The dichotomized baseline covariates that were utilized for study stratification were MAP <65 mm Hg and APACHE II score >30.” left out

serum renin = test: Serum renin concentration at baseline and hour 3 (DRG Renin ELISA), ATHOS-3 patients
Method: as §1, §2
(§4) Serum concentrations of renin, angiotensin I, and angiotensin II were measured after randomization but prior to administration of the study drug and at 3 hours after initiation of study drug.
Serum renin was measured with the DRG Renin ELISA Kit (DRG Instruments GmbH, Marburg, Germany). The DRG ELISA Kit is a solid-phase enzyme-linked immunosorbent assay based on the sandwich principle. The microtiter wells are coated with a monoclonal (mouse) antibody directed toward a unique antigenic site of the human active renin molecule. An aliquot of patient sample containing endogenous renin is rapidly thawed in a water bath and incubated in the coated well together with assay buffer. After incubation, unbound components are washed off. Finally, enzyme conjugate, a monoclonal anti-renin antibody conjugated with horseradish peroxidase, is added. After incubation, unbound enzyme conjugate is washed off. The amount of bound peroxidase is proportional to the concentration of renin in the sample. Having added the substrate solution, the intensity of color developed is proportional to the concentration of active renin in the patient sample. Personnel who conducted the assays were blinded to the study database and treatment allocation.

angiotensin I = test: Serum angiotensin I level at baseline and hour 3, ATHOS-3 patients; conditions: hour 3; IQR 13.4%-65.1% reduction; placebo 8.1%
Method: as §1, §2, §4

[5] = test system: patients with catecholamine-resistant vasodilatory shock; test: MAP response at hour 3 by baseline renin, ATHOS-3
Method: as §1, §2

[6] = renin above study population median, N = 55
[7] = renin above study population median, N = 55, listed as Angiotensin II
[8] = renin below study population median
[9] = renin below study population median, N = 64

Asp-Arg-Val-Tyr-Ile-His-Pro-Phe [angiotensin II]
RRT Liberation by Day 7 (alive and RRT free) ([1]; renin above study population median): 43%
ICU Discharge by Day 28 [1, 6]: 44%
Ventilator Liberation by Day 7 (alive and vent free) [1, 6]: 28%
ICU Discharge by Day 28 [1, 7]: 44% (32%-58%)
Ventilator Liberation by Day 7 (alive and vent free) [1, 7]: 28% (18%-43%)
RRT Liberation by Day 7 (alive and RRT free) ([1]; renin above study population median, listed as Angiotensin II): 43% (25%-66%)
RRT Liberation by Day 7 (alive and RRT free) [1, 8]: 28% (13%-54%)
ventilator and RRT liberation, ICU discharge: difference between treatment groups [1, 8]: no differences
ICU Discharge by Day 28 [1, 9]: 39% (28%-52%)
Ventilator Liberation by Day 7 (alive and vent free) [1, 9]: 27% (18%-40%)
Hour 48 change from baseline in Total SOFA, Mean (SD) ([2]; elevated renin population, N = 54): 1.35±6.032
Hour 48 change from baseline in Total SOFA, Mean (SD) ([2]; elevated renin population, N = 54, listed as LJPC-501): N = 54, 1.35 (6.032)
Hour 48 change from baseline in CV SOFA, Mean (SD) ([2]; elevated renin population, N = 55): −1.56±1.793
Hour 48 change from baseline in CV SOFA, Mean (SD) ([2]; elevated renin population, N = 55, listed as LJPC-501): N = 55, −1.56 (1.793)
Hour 48 change from baseline in Total SOFA, Mean (SD) ([2]; low renin population, N = 62): N = 62, 0.85 (5.524)
Hour 48 change from baseline in CV SOFA, Mean (SD) ([2]; low renin population, N = 64): N = 64, −1.77 (1.716)
change in CV SOFA score compared to placebo ([2]; total ATHOS-3 population, baseline to hour 48): significantly greater
HR (95% CI), treatment arm, multivariate ([3]; Table 4A whole cohort, full model): 0.77 (0.54-1.08)
HR (95% CI), treatment arm, multivariate ([3]; Table 4A whole cohort, step-wise model): 0.77 (0.54-1.08)
HR (95% CI), treatment arm, multivariate ([3]; Table 4B population below median renin, full model): 1.08 (0.64-1.82)
HR (95% CI), treatment arm, multivariate ([3]; Table 4B population below median renin, step-wise model): 1.11 (0.66-1.86)
HR (95% CI), treatment arm, multivariate ([3]; Table 4C population above median renin, full model): 0.62 (0.39-0.98)
HR (95% CI), treatment arm, multivariate ([3]; Table 4C population above median renin, step-wise model): 0.62 (0.39-0.98)
HR (95% CI), treatment arm, multivariate ([3]; Table 4D whole cohort with treatment-renin interaction, full model): 1.08 (0.64-1.81)
HR (95% CI), Treatment * Renin >= Population Median interaction ([3]; Table 4D whole cohort, full model): 0.54 (0.27-1.09)
HR (95% CI), treatment arm, multivariate ([3]; Table 4D whole cohort, step-wise model): 0.77 (0.54-1.08)
Day 28 mortality ([3]; baseline renin <Pop Median, N = 73): N = 73, 43.9%
Day 28 mortality ([3]; baseline renin >=Pop Median, N = 64): N = 64, 50.1%
HR, mortality sensitivity analysis ([3]; high renin cut-off 2x ULN): 0.69
HR, mortality sensitivity analysis ([3]; high renin cut-off 3x ULN): 0.57
HR, mortality sensitivity analysis ([3]; high renin cut-off 4x ULN): 0.63
HR, mortality sensitivity analysis ([3]; high renin cut-off ULN): 0.76
HR (95% CI), survival, vs placebo ([3]; high renin, AKI subset, N = 62): 0.51 (0.26-0.99), 0.0411
HR (95% CI), survival, vs placebo ([3]; high renin, ARDS subset, N = 41): 0.49 (0.21-1.16), 0.0964
HR (95% CI), survival, vs placebo ([3]; low renin, AKI subset, N = 32): 0.55 (0.19-1.58), 0.2574
HR (95% CI), survival, vs placebo ([3]; low renin, ARDS subset, N = 34): 1.38 (0.59-3.26), 0.4583
HR (95% CI), survival, vs placebo ([3]; low renin, all, N = 127): 1.11 (0.66-1.86), 0.7002
Hazard Ratio (95% CI), mortality, treatment arm ([3]; Model A): 0.58 (0.36-0.93)
Hazard Ratio (95% CI), mortality, treatment arm ([3]; Model B): 0.62 (0.38-0.99)
28-day mortality ([3]; patients with renin above the study population median, N = 55, table gives (95% CI)): 50.9%
28-day mortality ([3]; patients with renin above the study population median, N = 55, table gives (95% CI), listed as Angiotensin II): 51% (39%-65%)
28-day mortality ([3]; patients with renin below the study population median, N = 64): 45% (34%-58%)
unstratified hazard ratio, 28-day mortality, vs placebo ([3]; all): 0.56 and 0.556
unstratified hazard ratio, 28-day mortality, vs placebo ([3]; all, listed as LJPC 501): 0.56 (0.35-0.88), 0.0115
parameter estimate, treatment, Day 28 survival model ([3]; results available data): −0.298
difference in 28-day mortality vs placebo ([3]; serum renin below the study population median): no statistically significant difference
parameter estimate, treatment, Day 28 survival model ([3]; with multiple imputation of missing serum renin): −0.229
adverse events or serious adverse events vs placebo [4]: no significant difference
RR (95% CI), likelihood of renal recovery vs placebo (patients with severe AKI; all patients with severe AKI, N = 105): 2.902 (1.293-6.515)
RR (95% CI), likelihood of renal recovery vs placebo (patients with severe AKI; severe AKI, renin above study median, N = 62): 4.112 (1.376-12.29), 0.0061
RR (95% CI), likelihood of renal recovery vs placebo (patients with severe AKI; severe AKI, renin below study median, N = 32): 2.215 (0.429-11.42), 0.3295
median reduction in renin concentration (serum renin; 3 hours after initiation of therapy, IQR 37.9%-66.5% reduction, placebo 14.1%): 54.3%
Renin % Change at Hour 3, Mean (SD) (serum renin; N 102): −45.5 (38.59) ^ %
Renin % Change at Hour 3, Median (range) (serum renin; N 102): −54.8 (−91.1-161.0) %
Renin Change at Hour 3, Mean (SD) (serum renin; N 102): −210.3 (307.43) ^
Renin Change at Hour 3, Median (range) (serum renin; N 102): −99.6 (−1574-496.2)
Hour 3 Renin, Mean (SD) (serum renin; N 103): 231.8 (416.91) ^
Hour 3 Renin, Median (range) (serum renin; N 103): 85.0 (4.0-2739.8)
median reduction in angiotensin I levels (angiotensin I): 40.8%
MAP Response at Hour 3 ([5]; baseline renin <Pop Median, 57/73 patients): 57/73 (78.1%)
MAP Response at Hour 3 ([5]; baseline renin >=Pop Median, 39/64 patients): 39/64 (60.9%)

Source: patent publication US20220273757A1, “METHODS FOR ADMINISTERING ANGIOTENSIN II BY […] LEVELS” (La Jolla Pharma, LLC, priority 2019, published 2022)
